From ChEMBL document CHEMBL1125467, “Structure-activity relationship in the gastric cytoprotective effect of several sesquiterpene lactones” (1992)

Each compound was assayed on Rattus norvegicus (assay: Cytoprotective effect at an oral dose of 40 mg/kg).
Format: functional
Parameters: unit not given here
In the case of `C=C1C(=O)O[C@H]2C[C@@H](C)[C@@H]3C=CC(=O)[C@@]3(C)[C@H](O)[C@H]12` [MEXICANIN I], the Cytoprotective effect was 0.25. For `C=C1C(=O)O[C@@H]2C[C@@H](C)C3CCC(=O)[C@@]3(C)[C@@H](O)[C@H]12` (some centres not stated), the Cytoprotective effect was 1. For `C=C1C(=O)O[C@@H]2[C@H]3C(C)=CC(=O)C3=C(C)CC[C@@H]12` [DEHYDROLEUCODIN], the Cytoprotective effect was 0.25. `C=C1C(=O)OC2/C=C(\C)C[C@@H]3C=C(CC(OC(=O)C(C)CC)[C@@H]12)C(=O)O3` (some centres not stated) was tested, and the Cytoprotective effect was 4. Compound `C=C1C(=O)O[C@@H]2C[C@@H](C)C3CCC(C)=C3[C@@H](O)[C@H]12` (some centres not stated) [GUAIANOLIDE] has a Cytoprotective effect of 0.7. Compound `CC1=CC(=O)C2C(C)CC[C@H]3[C@H](C)C(=O)O[C@@H]3[C@]12C` (some centres not stated) has a Cytoprotective effect of 3.5. In the case of `C=C1C(=O)O[C@H]2[C@H]1CCC(C)=C1C[C@H]3O[C@@]3(C)[C@@H]12` [LUDARTIN], the Cytoprotective effect was 0.5. Work on `C=C1C(=O)O[C@@H]2C[C@@H](C)[C@@H]3C=CC(=O)[C@@]3(C)[C@@H](O)[C@H]12` [HELENALIN] yielded a Cytoprotective effect of 0.33. Compound `C=C1C(=O)O[C@@H]2[C@H]1CC[C@H](C)[C@@]1(O)C=CC(=O)[C@@]21C` [HYMENIN] has a Cytoprotective effect of 0.25. `C=C1C(=O)O[C@@H]2C[C@@H](C)C3C=CC(=O)[C@@]3(C)[C@@H](OC(=O)CN)[C@H]12` (some centres not stated) was tested, and the Cytoprotective effect was 0.85. Work on `C=C1C(=O)O[C@@H]2C[C@@H](C)C3C=CC(=O)[C@@]3(C)[C@@H](OC(=O)CNC(=O)C(F)(F)F)[C@H]12` (some centres not stated) yielded a Cytoprotective effect of 0.95. `C=C1C(=O)O[C@@H]2C[C@@H](C)C3C=CC(=O)[C@@]3(C)[C@@H](OC(C)=O)[C@H]12` (some centres not stated) gave a Cytoprotective effect of 1. `C=C1C(=O)O[C@@H]2C[C@@H](C)C3=CCC(=O)[C@@]3(C)[C@@H](OC(C)=O)[C@H]12` showed a Cytoprotective effect of 0.9. With `C[C@@H]1C[C@H]2OC(=O)[C@H](C)[C@H]2[C@H](O)[C@]2(C)C(=O)C=CC12` (some centres not stated) the Cytoprotective effect was 0.66. `CC1C(=O)O[C@@H]2[C@H]1CC[C@H](C)[C@@]1(O)C=CC(=O)[C@@]21C` (some centres not stated) was tested, and the Cytoprotective effect was 4.

The compounds below were run on Rattus norvegicus (assay: Compound was evaluated for the cytoprotective effect at an oral dose of 40 mg/kg in rat).
Format: functional
`C[C@@H]1C[C@H]2OC(=O)[C@H](C)[C@H]2[C@H](O)[C@]2(C)C(=O)CCC12` (some centres not stated) was tested, and the Cytoprotective effect was 3.7. `CC1C(=O)O[C@@H]2[C@H]1CC[C@H](C)[C@@]1(O)CCC(=O)[C@@]21C` (some centres not stated) gave a Cytoprotective effect of 4.5.
